Results as given in paper PMC11402040 (ESMO Open, 2024).

How the values were obtained:
[1] = cited from earlier work; for LFT elevations in the clinic: dose levels evaluated in the clinic
[2] = test system: CYP3A; experiment: phase I Part 1B PK, CYP3A-mediated drug–drug interaction with enzalutamide; type: in vivo, human; settings: coadministered enzalutamide 160 mg q.d.

Compound | LFT elevations in the clinic [1] | bleeding in clinical studies [1] | other results
CC(C)(O)c1cc(Nc2cc(Oc3cn(C4CC4)nc3C3CCOCC3)ccn2)ccn1 [LY3200882] | not demonstrated severe LFT elevations |  | 
CNC(=O)c1ccc(N2C(=S)N(c3ccc(C#N)c(C(F)(F)F)c3)C(=O)C2(C)C)cc1F [enzalutamide] |  |  | CYP3A4 enzyme induction effect on PF-06952229 [2]: strong cytochrome P450 3A4 (CYP3A4) enzyme induction effect
Cc1cccc(-c2nn3c(c2-c2ccnc4ccc(C(N)=O)cc24)CCC3)n1 [galunisertib] | not demonstrated severe LFT elevations |  | 
bintrafusp alfa: bifunctional fusion protein targeting TGF-β and PD-L1 |  | Bleeding (including intratumoral bleeding) has been observed | 
fresolimumab: other TGF-β inhibitor in clinical studies |  | Bleeding (including intratumoral bleeding) has been observed | 
